Results reported in US12728149B2, “Pharmaceutical composition for preventing and treating depression, comprising herbal medicine complex extracts of Zizyphi spinosi Semen, Jujubae Fructus, Hordei Fructus Germinatus, Glycyrrhizae Radix et Rhizoma, Angelicae Gigantis Radix, and Beta vulgaris as active ingredients” (INDUSTRY-ACADEMIC COORPERATION FOUNDATION DAEGU HAANY …, priority 2023, dated 2026).

What was measured:
mice [1] = assay: Tail suspension test (TST); assay type: in vivo
Description: (§1) All animal experiment procedures of the present disclosure were conducted in compliance with the preliminary review and ethics regulations of the Animal Experiment Ethics Committee of Daegu Haany University. 4-week-old male ICR mice (SPF/VAF CrljBgi:CD-1) were supplied from the Daehan Biolink (Chungcheongbuk-do, Korea), and adapted and used for 7 days in the pharmacology animal laboratory of Daegu Haany University. Each group consisted of 8 mice, and 5 mice were housed in polycarbonate mice cages and bred in a breeding room where a temperature of 23±1° C., humidity of 50±5%, and lighting time of 07:00 to 19:00 (12-hour cycle) were kept constant. During the adaptation period, feed and water were supplied without restrictions. […]
(§2) In order to verify whether there was an antidepressant effect of the herbal medicine complex extracts of Zizyphi spinosi Semen, Jujubae Fructus, Hordei Fructus Germinatus, Glycyrrhizae Radix et Rhizoma, Angelicae Gigantis Radix, and Beta vulgaris of the present disclosure, a tail suspension test (TST) was performed using experimental animals. The antidepressant effect was determined by measuring the immobility time during the tail suspension test, and experimental animals with tails alternated mobility and immobility, and the shorter the immobility time, there was the antidepressant effect. […]

mice [2] = assay: Forced swimming test (FST); assay type: in vivo
Description: as §1
as §2, with “a forced swimming” for “a tail suspension”, “test (FST)” for “test (TST)”, “the forced swimming” for “the tail suspension”, “and it was meant that” for “and experimental animals with tails alternated mobility and immobility, and the”, “time, the greater” for “time, there was”

[3] = imipramine 15 mg/kg intraperitoneally

CN(C)CCCN1c2ccccc2CCc2ccccc21 [Imipramine, imipramine] was tested. Which “immobility time compared to the control group” value (mice [1]; [3]) did it give?
Its value is “decreased”.

And the Immobility time (mice [1]; measured for 10 minutes, imipramine 15 mg/kg intraperitoneally for 1 week)?
Its Immobility time is 157.82 ± 11.02 s.

What about the “immobility time compared to the control group” value (mice [2]; [3]) of the same compound?
The value was “reduced”.

And the Immobility time (mice [2]; measured for 4 minutes, imipramine 15 mg/kg intraperitoneally for 1 week, test 30 minutes after administration on day 7)?
The Immobility time was 177.01 ± 5.67 s.
